Test results as given in US9169241B2, “Quinolinyloxyphenylsulfonamides” (Max-Planck-Gesellschaft Zur Forderung der Wissenschaften …, priority 2009, dated 2015).
pIC50: −log10 of the molar value.

Key:
[1] = system: Hs578T; assay: Cell vitality assay (ATP assay, CellTiter-Glo); assay type: cell-based; details: Homo sapiens, Hs-578T; HS578T cell line, 72 h; Table Ib; read-out: IC50 ATP-Assay HS578T after 72 h
Experimental: The CellTiter-Glo® Luminescent Cell Viability Assay (Promega Corporation. Madison, Wis., USA) is method a determining the number of viable cells in culture based on quantification of the ATP being present which is an indicator of metabolically active cells was used according to manufacturers protocol, In detail the assay was performed in a 96 well format were 1000 cells/well were incubated with indicated compound at concentration of 12.5 μM, 6.25 μM, 3.125 μM, 1.56 μM, 0.78 μM, 0.39 μM, 0.195 μM as well as DMSO control for 72 h in 100 μl cell culture medium. IC50 values were calculated as 50% of ATP amount compared to DMSO control.
Protocol for the CellTiter-Glo® Luminescent Cell Viability Assay • 1. Prepare opaque-walled multiwell plates with mammalian cells in culture medium, 100 μl per well for 96-well plates • 2. Prepare control wells containing medium without cells to obtain a value for background luminescence. • 3. Add the compound to be tested to experimental wells, and incubate according to culture protocol. • 4. Equilibrate the plate and its contents at room temperature for approximately 30 minutes. • 5. Add a volume of CellTiter-Glo® Reagent (Promega Corporation. Madison, Wis.) equal to the volume of cell culture medium present in each well. • 6. Mix contents for 2 minutes on an orbital shaker to induce cell lysis. • 7. Allow the plate to incubate at room temperature for 10 minutes to stabilize luminescent signal. • 8. Record luminescence on Microplate Luminometer LB96V (Berthold Tchnologies, Bad Wildbad, Germany). An integration time of 0.1 and 1 second per well

[2] = system: Hs578T; assay: Matrigel outgrowth assay/branching assay; assay type: cell-based; details: Homo sapiens, Hs-578T; HS578T cell line; Table Ib; read-out: Total branching inhibition in Matrigel HS578T
Experimental: The Matrigel outgrowth assay is based on the ability of tumor cell to penetrate a solid gel of extracellular matrix proteins mimicking the metastasis formation in vivo. While cells with low invasive potential appear as roundish cell or cell cluster, cells with high invasive potential penetrate the Matrigel and form polymorphic structures. In detail 65 μl of Matrigel matrix (Matrigel™ Matrix, BD Biosciences, Bedford, Mass., USA) with a concentration of 3 mg/ml have been polymerized in 96 well plates for 1 h at 37° C. Subsequently 5000 cell/well were seeded into each well containing cell culture medium and indicated compound with concentrations of 3.125 μM, 1.56 μM and 0.78 μM as well as DMSO control. After 48 h, 72 h and 96 h images of cell were taken on an inverted microscope using a 5× objective (Zeiss Axiovert S100 microscope Carl Zeiss UK, Welwyn Garden City, UK). Only compound concentrations were total branching inhibition was evident were accounted as positive. Method was used as previously described, with some modifications (Thompson E W, et al. Association of increased basement membrane invasiveness with absence of estrogen receptor and expression of vimentin in human breast cancer cell lines. J Cell Physiol 1992; 150:534-44).

[3] = system: Hs578T; assay: Wound healing migration assay; assay type: cell-based; details: Homo sapiens, Hs-578T; HS578T cell line; Table Ib
Experimental: This method mimics cell migration during wound healing in vivo. The basic steps involve creating a “wound” in a cell monolayer, capturing the images at the beginning and at regular intervals during cell migration to close the wound, and comparing the images to quantify the migration rate of the cells. In detail, 150000 cell/24 well have been seeded and allowed to form a monolayer overnight. Subsequently a “wound” or “scratch” has been performed with a 1000 μl pipette tip. The STDV of wound size is normally below 10% at time point t0. The assay was stopped by fixation with 0.05% Crystal violet/20% methanol when control scratches were closed. The assay was terminated between 48 h and 72 h depending on the migration potential of the indicated cell line. The “wounds” were visualized with a Zeiss Axiovert S100 microscope (Carl Zeiss UK, Welwyn Garden City, UK). The tested compounds were used at 12.5 μM, 6.25, 3.125 μM and DMSO control. IC50 values have been calculated as 50% wound size in between t0 and t48 or t72.

| melting point | pIC50 [3] | SMILES | pIC50 [1] | pIC50 [2] |
| --- | --- | --- | --- | --- |
| 87 to 89 °C | 4.30 to 4.90 | COc1cc2c(Oc3cccc(NS(=O)(=O)c4ccn(C)n4)c3)ccnc2cc1OCCCN1CCN(C)CC1 [Example 139, 1-Methyl-1H-pyrazole-3-sulfonic acid (3-{6-methoxy-7-[3-(4-methyl-piperazin-1-yl)-propoxy]-quinolin-4-yloxy}-phenyl)-amide] | 4.30 to 4.90 | 4.60 to 5.00 |
| 215 to 217 °C | 4.30 to 4.90 | COc1cc2c(Oc3ccc(NS(=O)(=O)c4cnc(C)[nH]4)cc3F)ccnc2cc1OCCCN1CCN(C)CC1 [Example 170, 2-Methyl-3H-imidazole-4-sulfonic acid (3-fluoro-4-{6-methoxy-7-[3-(4-methyl-piperazin-1-yl)-propoxy]-quinolin-4-yloxy}-phenyl)-amide] | 4.30 to 4.90 | 4.60 to 5.00 |
| 84 to 86 °C | 4.30 to 4.90 | COC(=O)c1sccc1S(=O)(=O)Nc1cccc(Oc2ccnc3cc(OCCCN4CCN(C)CC4)c(OC)cc23)c1 [Example 135, 3-(3-{6-Methoxy-7-[3-(4-methyl-piperazin-1-yl)-propoxy]-quinolin-4-yloxy}-phenylsulfamoyl)-thiophene-2-carboxylic acid methyl ester] | 4.30 to 4.90 | 4.60 to 5.00 |
| 176 to 177 °C | 4.30 to 4.90 | COc1cc2c(Oc3cccc(NS(=O)(=O)c4ccco4)c3)ccnc2cc1OCCCN1CCN(C)CC1 [Example 137, Furan-2-sulfonic acid (3-{6-methoxy-7-[3-(4-methyl-piperazin-1-yl)-propoxy]-quinolin-4-yloxy}-phenyl)-amide] | 4.30 to 4.90 | 4.60 to 5.00 |
| 80 to 81 °C | 4.30 to 4.90 | COc1cc2c(Oc3ccc(NS(=O)(=O)c4c(C)nn(C)c4C)cc3F)ccnc2cc1OCCCN1CCN(C)CC1 [Example 162, 1,3,5-Trimethyl-1H-pyrazole-4-sulfonic acid (3-fluoro-4-{6-methoxy-7-[3-(4-methyl-piperazin-1-yl)-propoxy]-quinolin-4-yloxy}-phenyl)-amide] | ≥ 4.90 | 4.60 to 5.00 |

Further lines, the compound ahead of its results:

| SMILES | melting point | pIC50 [3] | pIC50 [1] | pIC50 [2] |
| --- | --- | --- | --- | --- |
| COc1cc2c(Oc3ccc(NS(=O)(=O)c4c(C)nn(C)c4C)cc3F)ccnc2cc1OCCCN1CCOCC1 [Example 161, 1,3,5-Trimethyl-1H-pyrazole-4-sulfonic acid {3-fluoro-4-[6-methoxy-7-(3-morpholin-4-yl-propoxy)-quinolin-4-yloxy]-phenyl}-amide] | 163 to 164 °C | 4.30 to 4.90 | ≥ 4.90 | 4.60 to 5.00 |
| COc1cc2c(Oc3ccc(NS(=O)(=O)c4c[nH]c(C)n4)cc3F)ccnc2cc1OCCCN1CCCCC1C (centres unmarked) [Example 149, 2-Methyl-1H-imidazole-4-sulfonic acid (3-fluoro-4-{6-methoxy-7-[3-(2-methyl-piperidin-1-yl)-propoxy]-quinolin-4-yloxy}-phenyl)-amide] | 219 to 220 °C | 4.30 to 4.90 | 4.30 to 4.90 | 4.60 to 5.00 |
| COc1cc2c(Oc3cc(NS(=O)(=O)c4ccccc4C(F)(F)F)ccc3F)ccnc2cc1OCCCN1CCC(C)CC1 [Example 189, N-(4-Fluoro-3-{6-methoxy-7-[3-(4-methyl-piperidin-1-yl)-propoxy]-quinolin-4-yloxy}-phenyl)-2-trifluoromethyl-benzenesulfonamide] | 175 to 177 °C | 4.30 to 4.90 | 4.30 to 4.90 | 4.60 to 5.00 |
| COc1cc2c(Oc3cc(NS(=O)(=O)c4c(Cl)cccc4Cl)ccc3F)ccnc2cc1OCCCN1CCC(C)CC1 [Example 192, 2,6-Dichloro-N-(4-fluoro-3-{6-methoxy-7-[3-(4-methyl-piperidin-1-yl)-propoxy]-quinolin-4-yloxy}-phenyl)-benzenesulfonamide] | 116 to 118 °C | 4.30 to 4.90 | ≥ 4.90 | 4.60 to 5.00 |
| COc1cc2c(Oc3ccc(NS(=O)(=O)c4ccn(C)n4)cc3F)ccnc2cc1OCCCN1CCCCC1 [Example 163, 1-Methyl-1H-pyrazole-3-sulfonic acid {3-fluoro-4-[6-methoxy-7-(3-piperidin-1-yl-propoxy)-quinolin-4-yloxy]-phenyl}-amide] | 167 to 168 °C | 4.30 to 4.90 | ≥ 4.90 | 4.60 to 5.00 |
| COc1cc2c(Oc3ccc(NS(=O)(=O)c4sc(NC(C)=O)nc4C)cc3F)ccnc2cc1OCCCN(C)C [Example 183, N-(5-{4-[7-(3-Dimethylamino-propoxy)-6-methoxy-quinolin-4-yloxy]-3-fluoro-phenylsulfamoyl}-4-methyl-thiazol-2-yl)-acetamide] | 164 to 166 °C | 4.30 to 4.90 | 4.30 to 4.90 | 4.60 to 5.00 |
| COc1cc2c(Oc3cc(NS(=O)(=O)c4c(F)cccc4F)ccc3F)ccnc2cc1OCCCN1CCC(C)CC1 [Example 188, 2,6-Difluoro-N-(4-fluoro-3-{6-methoxy-7-[3-(4-methyl-piperidin-1-yl)-propoxy]-quinolin-4-yloxy}-phenyl)-benzenesulfonamide] | 185 to 186 °C | ≥ 4.90 | ≥ 4.90 | ≥ 5.00 |
| CCOC(=O)COc1cc2nccc(Oc3ccc(NS(=O)(=O)c4ccccc4F)cc3F)c2cc1OC [Example 92, {4-[2-Fluoro-4-(2-fluoro-benzenesulfonylamino)-phenoxy]-6-methoxy-quinolin-7-yloxy}-acetic acid ethyl ester] | 87 to 89 °C | 4.30 to 4.90 | ≥ 4.90 | 4.60 to 5.00 |
| COc1cc2c(Oc3ccc(NS(=O)(=O)c4ccn(C)n4)cc3F)ccnc2cc1OCCCN1CCOCC1 [Example 165, 1-Methyl-1H-pyrazole-3-sulfonic acid {3-fluoro-4-[6-methoxy-7-(3-morpholin-4-yl-propoxy)-quinolin-4-yloxy]-phenyl}-amide] | 198 to 199 °C | 4.30 to 4.90 | ≥ 4.90 | 4.60 to 5.00 |
| COc1ccc2nccc(Oc3ccc(NS(=O)(=O)c4c(Cl)cccc4Cl)cc3F)c2c1 [Example 204, 2,6-Dichloro-N-[3-fluoro-4-(6-methoxy-quinolin-4-yloxy)-phenyl]-benzenesulfonamide] | 219 to 221 °C | 4.30 to 4.90 | 4.30 to 4.90 | 4.60 to 5.00 |
| COc1cc2c(Oc3ccc(Cl)c(NS(=O)(=O)c4ccccc4C(F)(F)F)c3)ccnc2cc1OCCCN1CCC(C)CC1 [Example 195, N-(2-Chloro-5-{6-methoxy-7-[3-(4-methyl-piperidin-1-yl)-propoxy]-quinolin-4-yloxy}-phenyl)-2-trifluoromethyl-benzenesulfonamide] | 179 to 181 °C | 4.30 to 4.90 | 4.30 to 4.90 | 4.60 to 5.00 |
| COc1cc2c(Oc3ccc(NS(=O)(=O)c4ccccc4C(F)(F)F)cc3F)ccnc2cc1OCCCNC(=O)OC(C)(C)C [Example 120, (3-{4-[2-Fluoro-4-(2-trifluoromethyl-benzenesulfonylamino)-phenoxy]-6-methoxy-quinolin-7-yloxy}-propyl)-carbamic acid tert-butyl ester] | 80 to 82 °C | 4.30 to 4.90 | 4.30 to 4.90 | 4.60 to 5.00 |
